Laboratory results: publication PMC5218480 (PLoS ONE, 2017)

Test system: MV-4-11 cells
Assay: Gene expression microarray analysis (Affymetrix PrimeView) and GSEA
Assay type: cell-based, human
Design: RFU PODN (11730768_x_at) / Fold change /veh PODN (11730768_x_at) / RFU LINC00158 (11744669_a_at) / Fold change /veh LINC00158 (11744669_a_at) / RFU DUSP10 (11751237_a_at) / Fold change /veh DUSP10 (11751237_a_at) / RFU ID3 (11757404_x_at) / Fold change /veh ID3 (11757404_x_at) / RFU PLEKHG5 (11737974_s_at) / Fold change /veh PLEKHG5 (11737974_s_at) / RFU LRRC4B (11730491_at) / Fold change /veh LRRC4B (11730491_at) / RFU GIMAP4 (11747438_a_at) / Fold change /veh GIMAP4 (11747438_a_at) / RFU KRT8 (11758183_x_at) / Fold change /veh KRT8 (11758183_x_at) / RFU CNN1 (11734310_a_at) / Fold change /veh CNN1 (11734310_a_at) / RFU VPS37D (11726825_at) / Fold change /veh VPS37D (11726825_at) / RFU C10orf10 (11716522_x_at) / Fold change /veh C10orf10 (11716522_x_at) / RFU KIR2DL2 /// KIR2DL4 /// KIR2DL5A /// KIR2DL5B /// KIR2DS1 /// KIR2DS2 /// KIR2DS3 /// KIR2DS4 /// KIR3DL3 /// KIR3DL3 /// KIR3DS1 (11738374_at) / Fold change /veh KIR2DL2 /// KIR2DL4 /// KIR2DL5A /// KIR2DL5B /// KIR2DS1 /// KIR2DS2 /// KIR2DS3 /// KIR2DS4 /// KIR3DL3 /// KIR3DL3 /// KIR3DS1 (11738374_at) / RFU C1QL1 (11718748_at) / Fold change /veh C1QL1 (11718748_at) / RFU TMPRSS4 (11747572_a_at) / Fold change /veh TMPRSS4 (11747572_a_at) / RFU HAMP (11756126_x_at) / Fold change /veh HAMP (11756126_x_at) / RFU RNFT2 (11725882_a_at) / Fold change /veh RNFT2 (11725882_a_at) / RFU NR4A2 (11747474_a_at) / Fold change /veh NR4A2 (11747474_a_at) / RFU ABCC12 (11746883_a_at) / Fold change /veh ABCC12 (11746883_a_at) / RFU TMEM136 (11760407_x_at) / Fold change /veh TMEM136 (11760407_x_at) / RFU CLDN22 /// WWC2 (11732394_at) / Fold change /veh CLDN22 /// WWC2 (11732394_at) / RFU HLA-DPB1 (11760878_x_at) / Fold change /veh HLA-DPB1 (11760878_x_at) / RFU SPINT1 (11716480_a_at) / Fold change /veh SPINT1 (11716480_a_at) / RFU GAP43 (11754022_s_at) / Fold change /veh GAP43 (11754022_s_at) / RFU A4GNT (11735810_at) / Fold change /veh A4GNT (11735810_at) / RFU PRB3 (11715151_x_at) / Fold change /veh PRB3 (11715151_x_at) / RFU TUBB4B (11761932_at) / Fold change /veh TUBB4B (11761932_at) / RFU CAPN14 (11732068_a_at) / Fold change /veh CAPN14 (11732068_a_at) / RFU TMCC2 (11721928_a_at) / Fold change /veh TMCC2 (11721928_a_at) / RFU IRGQ (11745062_a_at) / Fold change /veh IRGQ (11745062_a_at) / RFU FAM174B (11720279_a_at) / Fold change /veh FAM174B (11720279_a_at) / RFU TMPRSS4 (11748680_a_at) / Fold change /veh TMPRSS4 (11748680_a_at) / RFU FAM212B (11763350_a_at) / Fold change /veh FAM212B (11763350_a_at) / RFU PLEKHG5 (11743358_a_at) / Fold change /veh PLEKHG5 (11743358_a_at) / RFU ZSCAN30 (11745921_a_at) / Fold change /veh ZSCAN30 (11745921_a_at) / RFU CMKLR1 (11741424_a_at) / Fold change /veh CMKLR1 (11741424_a_at) / RFU LOC101060620 /// MAPK8IP1 (11723275_at) / Fold change /veh LOC101060620 /// MAPK8IP1 (11723275_at) / RFU SPTSSB (11747773_x_at) / Fold change /veh SPTSSB (11747773_x_at) / RFU PRSS12 (11739890_at) / Fold change /veh PRSS12 (11739890_at) / RFU BIN1 (11741810_x_at) / Fold change /veh BIN1 (11741810_x_at) / RFU WNT11 (11732464_a_at) / Fold change /veh WNT11 (11732464_a_at) / RFU C10orf10 (11716521_a_at) / Fold change /veh C10orf10 (11716521_a_at) / RFU C5orf56 (11738089_at) / Fold change /veh C5orf56 (11738089_at) / RFU CYB561 (11721691_x_at) / Fold change /veh CYB561 (11721691_x_at) / RFU ANKRD19P (11752326_a_at) / Fold change /veh ANKRD19P (11752326_a_at) / RFU OR2T12 /// OR2T33 /// OR2T8 (11738714_s_at) / Fold change /veh OR2T12 /// OR2T33 /// OR2T8 (11738714_s_at) / RFU VCAN (11748164_a_at) / Fold change /veh VCAN (11748164_a_at) / RFU JSRP1 (11732532_at) / Fold change /veh JSRP1 (11732532_at) / RFU KRTAP10-11 (11738290_x_at) / Fold change /veh KRTAP10-11 (11738290_x_at) / RFU MYO3A (11730013_a_at) / Fold change /veh MYO3A (11730013_a_at) / RFU EBF3 (11725865_a_at) / Fold change /veh EBF3 (11725865_a_at) / RFU CAMK2N1 (11719241_x_at) / Fold change /veh CAMK2N1 (11719241_x_at) / RFU C5orf56 (11738088_a_at) / Fold change /veh C5orf56 (11738088_a_at) / RFU OLFML3 (11715873_a_at) / Fold change /veh OLFML3 (11715873_a_at) / RFU LOC100653217 /// NTM (11731650_a_at) / Fold change /veh LOC100653217 /// NTM (11731650_a_at) / RFU MAPK11 (11762145_a_at) / Fold change /veh MAPK11 (11762145_a_at) / RFU FIZ1 (11724087_x_at) / Fold change /veh FIZ1 (11724087_x_at) / RFU OASL (11726364_x_at) / Fold change /veh OASL (11726364_x_at) / RFU SOX15 (11748057_x_at) / Fold change /veh SOX15 (11748057_x_at) / RFU CD79A (11719716_a_at) / Fold change /veh CD79A (11719716_a_at) / RFU HIST1H1D (11736915_at) / Fold change /veh HIST1H1D (11736915_at) / RFU CASKIN2 (11723855_a_at) / Fold change /veh CASKIN2 (11723855_a_at) / RFU LOC730098 (11760151_x_at) / Fold change /veh LOC730098 (11760151_x_at) / RFU OR4N2 (11742367_at) / Fold change /veh OR4N2 (11742367_at) / RFU PRRT2 (11749266_a_at) / Fold change /veh PRRT2 (11749266_a_at) / RFU SNX32 (11753110_a_at) / Fold change /veh SNX32 (11753110_a_at) / RFU CDHR5 (11726645_a_at) / Fold change /veh CDHR5 (11726645_a_at) / RFU RCAN1 (11760418_a_at) / Fold change /veh RCAN1 (11760418_a_at) / RFU FAM167A (11723789_a_at) / Fold change /veh FAM167A (11723789_a_at) / RFU FAM26E (11764081_at) / Fold change /veh FAM26E (11764081_at) / RFU ISYNA1 (11749810_s_at) / Fold change /veh ISYNA1 (11749810_s_at) / RFU ACY1 (11761880_at) / Fold change /veh ACY1 (11761880_at) / RFU 11764098_at / Fold change /veh 11764098_at / RFU SAMD14 (11745864_x_at) / Fold change /veh SAMD14 (11745864_x_at) / RFU NPB (11741838_a_at) / Fold change /veh NPB (11741838_a_at) / RFU TMPRSS6 (11731388_a_at) / Fold change /veh TMPRSS6 (11731388_a_at) / RFU KRTAP10-2 (11738614_at) / Fold change /veh KRTAP10-2 (11738614_at) / RFU ARHGAP8 /// PRR5-ARHGAP8 (11727945_x_at) / Fold change /veh ARHGAP8 /// PRR5-ARHGAP8 (11727945_x_at) / RFU KRTAP5-7 /// NADSYN1 (11734609_at) / Fold change /veh KRTAP5-7 /// NADSYN1 (11734609_at) / RFU RASL12 (11751679_a_at) / Fold change /veh RASL12 (11751679_a_at) / RFU CDKN2B (11736163_a_at) / Fold change /veh CDKN2B (11736163_a_at) / RFU PRF1 (11729649_at) / Fold change /veh PRF1 (11729649_at) / RFU, ZNF638 /// ZNF638-IT1 / Fold change vs veh, ZNF638 /// ZNF638-IT1 / RFU, PANK3 / Fold change vs veh, PANK3 / RFU, SH3YL1 / Fold change vs veh, SH3YL1 / RFU, ZEB2 / Fold change vs veh, ZEB2 / RFU, NRIP1 / Fold change vs veh, NRIP1 / RFU, PTTG1IP / Fold change vs veh, PTTG1IP / RFU, CAPN2 / Fold change vs veh, CAPN2 / RFU, MED14 / Fold change vs veh, MED14 / RFU, SNORA58 / Fold change vs veh, SNORA58 / RFU, C1orf63 / Fold change vs veh, C1orf63 / RFU, LRRFIP1 / Fold change vs veh, LRRFIP1 / RFU, NDUFAF7 / Fold change vs veh, NDUFAF7 / RFU, SLC12A2 / Fold change vs veh, SLC12A2 / RFU, IBTK / Fold change vs veh, IBTK / RFU, ESF1 / Fold change vs veh, ESF1 / Fold change vs veh, TMEM50B / RFU, TAOK1 / Fold change vs veh, TAOK1 / RFU, ACBD3 / Fold change vs veh, ACBD3 / RFU, TMA16 / Fold change vs veh, TMA16 / RFU, RWDD3 / Fold change vs veh, RWDD3 / RFU, BCAT1 / Fold change vs veh, BCAT1 / RFU, EDEM3 / Fold change vs veh, EDEM3 / RFU, TMEM33 / Fold change vs veh, TMEM33 / RFU, WDR75 / Fold change vs veh, WDR75 / RFU, AHCTF1 / Fold change vs veh, AHCTF1 / RFU, TFRC / Fold change vs veh, TFRC / RFU, ZDHHC17 / Fold change vs veh, ZDHHC17 / RFU, NOM1 / Fold change vs veh, NOM1 / RFU, ARL8B / Fold change vs veh, ARL8B / RFU, ZBTB11 / Fold change vs veh, ZBTB11 / RFU, TAMM41 / Fold change vs veh, TAMM41 / RFU, KIAA1704 /// LOC100996395 / Fold change vs veh, KIAA1704 /// LOC100996395 / RFU, ING1 / Fold change vs veh, ING1 / RFU, TRMT61B / Fold change vs veh, TRMT61B / RFU, FUBP3 / Fold change vs veh, FUBP3 / RFU, TP53 / Fold change vs veh, TP53 / RFU, TNKS2 / Fold change vs veh, TNKS2 / RFU, ZFP14 / Fold change vs veh, ZFP14 / RFU, ACTR2 / Fold change vs veh, ACTR2 / RFU, PPP3R1 / Fold change vs veh, PPP3R1 / RFU, PIK3R1 / Fold change vs veh, PIK3R1 / RFU, HNRNPA1 / Fold change vs veh, HNRNPA1 / RFU, RNF170 / Fold change vs veh, RNF170 / RFU, ZNF28 / Fold change vs veh, ZNF28 / RFU, RNGTT / Fold change vs veh, RNGTT / RFU, OGT / Fold change vs veh, OGT / RFU, BRD1 / Fold change vs veh, BRD1 / RFU, MARS / Fold change vs veh, MARS / RFU, ZNF655 / Fold change vs veh, ZNF655 / RFU, FAHD1 / Fold change vs veh, FAHD1 / RFU, BDP1 / Fold change vs veh, BDP1 / RFU, LRRCC1 / Fold change vs veh, LRRCC1 / RFU, ARID1A / Fold change vs veh, ARID1A / RFU, ZNF146 / Fold change vs veh, ZNF146 / RFU, ZNF330 / Fold change vs veh, ZNF330 / RFU, GPN3 / Fold change vs veh, GPN3 / RFU, C9orf123 / Fold change vs veh, C9orf123 / RFU, N4BP2L2 / Fold change vs veh, N4BP2L2 / RFU, ARFIP1 / Fold change vs veh, ARFIP1 / RFU, FAM179B / Fold change vs veh, FAM179B / RFU, BCL10 / Fold change vs veh, BCL10 / RFU, UHRF1BP1L / Fold change vs veh, UHRF1BP1L / RFU, BET1 / Fold change vs veh, BET1 / RFU, CNOT2 / Fold change vs veh, CNOT2 / RFU, ZNF268 / Fold change vs veh, ZNF268 / Fold change vs veh, ZNF507 / RFU, DGCR2 / Fold change vs veh, DGCR2 / RFU, WDSUB1 / Fold change vs veh, WDSUB1 / Fold change vs veh, HSP90B1 /// MIR3652 / RFU, ADSS / Fold change vs veh, ADSS / RFU, GK / Fold change vs veh, GK / RFU, ZNF148 / Fold change vs veh, ZNF148 / RFU, TAF9 / Fold change vs veh, TAF9 / RFU, SLC1A5 / Fold change vs veh, SLC1A5 / RFU, SLMO2 / Fold change vs veh, SLMO2 / RFU, ABCC4 / Fold change vs veh, ABCC4 / RFU, LOC101060439 /// RAP1B / Fold change vs veh, LOC101060439 /// RAP1B / RFU, RFX7 / Fold change vs veh, RFX7 / RFU, GTPBP10 / Fold change vs veh, GTPBP10 / RFU, CNEP1R1 / Fold change vs veh, CNEP1R1 / RFU, BIVM-ERCC5 /// ERCC5 / Fold change vs veh, BIVM-ERCC5 /// ERCC5 / RFU, ILF3 / Fold change vs veh, ILF3 / RFU 11762660_at / Fold change /veh 11762660_at / RFU VCAN (11757783_s_at) / Fold change /veh VCAN (11757783_s_at) / RFU DDX43 (11728927_at) / Fold change /veh DDX43 (11728927_at) / RFU KRT8 (11758188_x_at) / Fold change /veh KRT8 (11758188_x_at) / RFU NKD1 (11759106_at) / Fold change /veh NKD1 (11759106_at) / RFU SRD5A1 (11742802_a_at) / Fold change /veh SRD5A1 (11742802_a_at) / RFU TPSAB1 /// TPSB2 (11721975_s_at) / Fold change /veh TPSAB1 /// TPSB2 (11721975_s_at) / RFU GSTM3 (11746129_a_at) / Fold change /veh GSTM3 (11746129_a_at) / RFU IL23R (11737362_x_at) / Fold change /veh IL23R (11737362_x_at) / RFU TMEM51 (11727254_a_at) / Fold change /veh TMEM51 (11727254_a_at) / RFU PIWIL2 (11732686_x_at) / Fold change /veh PIWIL2 (11732686_x_at) / RFU ORM1 (11744905_x_at) / Fold change /veh ORM1 (11744905_x_at) / RFU CCDC152 (11743942_at) / Fold change /veh CCDC152 (11743942_at) / RFU ECM1 (11717891_a_at) / Fold change /veh ECM1 (11717891_a_at) / RFU IL23R (11748794_a_at) / Fold change /veh IL23R (11748794_a_at) / RFU TNFAIP8L3 (11732012_x_at) / Fold change /veh TNFAIP8L3 (11732012_x_at) / RFU MBOAT4 (11741988_at) / Fold change /veh MBOAT4 (11741988_at) / RFU 11764193_at / Fold change /veh 11764193_at / RFU TMEM53 (11763286_at) / Fold change /veh TMEM53 (11763286_at) / RFU MAGEB2 (11727129_at) / Fold change /veh MAGEB2 (11727129_at) / RFU TMEM200A (11744735_a_at) / Fold change /veh TMEM200A (11744735_a_at) / RFU CCDC152 (11751479_a_at) / Fold change /veh CCDC152 (11751479_a_at) / RFU FAM211A (11726209_a_at) / Fold change /veh FAM211A (11726209_a_at) / RFU RGS16 (11746705_a_at) / Fold change /veh RGS16 (11746705_a_at) / RFU VCAN (11755009_s_at) / Fold change /veh VCAN (11755009_s_at) / RFU RHOB (11743442_s_at) / Fold change /veh RHOB (11743442_s_at) / RFU RGS16 (11720943_a_at) / Fold change /veh RGS16 (11720943_a_at) / RFU RGS16 (11720944_at) / Fold change /veh RGS16 (11720944_at) / RFU, VPS4B / Fold change vs veh, VPS4B / RFU, CREB1 / Fold change vs veh, CREB1 / RFU, DNAJC13 / Fold change vs veh, DNAJC13 / RFU, GNAQ / Fold change vs veh, GNAQ / RFU, CDK5R1 / Fold change vs veh, CDK5R1 / RFU, ZRANB3 / Fold change vs veh, ZRANB3 / RFU, CUL4A / Fold change vs veh, CUL4A / RFU, CCNY / Fold change vs veh, CCNY / RFU, UFL1 / Fold change vs veh, UFL1 / RFU, COG3 / Fold change vs veh, COG3 / RFU, DIAPH2 / Fold change vs veh, DIAPH2 / RFU, SKA2 / Fold change vs veh, SKA2 / RFU, AFF3 / Fold change vs veh, AFF3 / RFU, LMF1 / Fold change vs veh, LMF1 / RFU, IPO11 / Fold change vs veh, IPO11 / RFU, DFFB / Fold change vs veh, DFFB / RFU, FOXP1 / Fold change vs veh, FOXP1 / RFU, CARD8 / Fold change vs veh, CARD8 / RFU, STRN3 / Fold change vs veh, STRN3 / RFU, ADK / Fold change vs veh, ADK / RFU, RASSF2 / Fold change vs veh, RASSF2 / RFU, WIPF1 / Fold change vs veh, WIPF1 / RFU, LARP1B / Fold change vs veh, LARP1B / RFU, RASA1 / Fold change vs veh, RASA1 / RFU, RB1 / Fold change vs veh, RB1 / RFU, PPFIA1 / Fold change vs veh, PPFIA1 / RFU, MAT2A / Fold change vs veh, MAT2A / RFU, CCT5 / Fold change vs veh, CCT5 / RFU, WDR92 / Fold change vs veh, WDR92 / RFU, CUX1 / Fold change vs veh, CUX1 / RFU, TTC7A / Fold change vs veh, TTC7A / RFU, TMEM135 / Fold change vs veh, TMEM135 / RFU, DEPTOR / Fold change vs veh, DEPTOR / RFU, CPM / Fold change vs veh, CPM / RFU, DNAJB6 / Fold change vs veh, DNAJB6 / RFU, CACNA2D3 / Fold change vs veh, CACNA2D3 / RFU, DTX4 / Fold change vs veh, DTX4 / RFU, TFCP2 / Fold change vs veh, TFCP2 / RFU, GMCL1 /// GMCL1P1 / Fold change vs veh, GMCL1 /// GMCL1P1 / RFU, AEBP2 / Fold change vs veh, AEBP2 / RFU, SNHG1 /// SNORD22 /// SNORD25 /// SNORD26 /// SNORD27 /// SNORD28 /// SNORD29 /// SNORD31 / Fold change vs veh, SNHG1 /// SNORD22 /// SNORD25 /// SNORD26 /// SNORD27 /// SNORD28 /// SNORD29 /// SNORD31 / Fold change (Aza/veh), C12orf56 (ProbeSet 11735607_a_at) / Fold change (ACY-1035/veh), C12orf56 (ProbeSet 11735607_a_at) / Fold change (Aza/veh), FGFR1OP (ProbeSet 11751329_s_at) / Fold change (ACY-1035/veh), FGFR1OP (ProbeSet 11751329_s_at) / Fold change (Aza/veh), VPS36 (ProbeSet 11739960_a_at) / Fold change (ACY-1035/veh), VPS36 (ProbeSet 11739960_a_at) / RFU SYPL1 (11715823_x_at) / Fold change /veh SYPL1 (11715823_x_at) / RFU IGFBP7 (11715501_s_at) / Fold change /veh IGFBP7 (11715501_s_at) / RFU REEP3 (11722064_at) / Fold change /veh REEP3 (11722064_at) / RFU IGLL1 (11728026_x_at) / Fold change /veh IGLL1 (11728026_x_at): dose or concentration left out as unconfirmed
Conditions: ProbeSet 11743362_s_at; LIST B

## Nc1ccc(-c2cccs2)cc1NC(=O)c1ccc2c(c1)cc(C1CC1)n2CCN1CCOCC1 [ACY-1035]
  RFU, ADSS: 662.69 RFU
